Assay results taken from paper PMC4267740, “Unprecedented Therapeutic Potential with a Combination of A2A/NR2B Receptor Antagonists as Observed in the 6-OHDA Lesioned Rat Model of Parkinson's Disease” (PLoS ONE, 2014).
Entries after “also recorded” stand apart in the source; their conditions may differ. Like-named read-outs stand apart in the source and are kept apart here.

Tests used:
Type in all cases: in vivo, rat
[1] = test system: unilateral 6-OHDA-lesioned rats; test: Rearing counts in actometers, monotherapy (without L-Dopa)
Description: (§1) To protect norepinephrinergic neurons, animals were administered imipramine HCl (Sigma) 15 minutes before surgery. They were subsequently anesthetized with ketamine (Ceva, 75 mg/kg) and xylazine (Bayer, 10 mg/kg) and placed in stereotaxic frame (David Kopf Instrument). 6-OHDA was injected into the right ascending medial forebrain bundle at the following coordinates (in mm) relative to bregma and surface of the dura, AP = −3.5, ML = −1.5, DV = −8.7. Each rat received one injection of 6-OHDA (4 µg/µl) over a period of 5 minutes (0.5 µl/min) for a total of 10 µg per rat. Animals were monitored for 3 weeks to ensure full recovery and habituation to the environment and experimenters.
(§2) On day 21 post surgery, all rats were challenged with a small dose of subcutaneously administered apomorphine (Sigma, 0.05 mg/kg). Rats showing more than 90 contralateral rotations (360°) over a 45-minute recording period were included in the study. […] For each experiment, rats were allocated to the different experimental groups in order to get the same mean level of basal activity measured at the apomorphine challenge amongst the different experimental groups.
(§3) Drug-naïve separate rats were tested individually in clear acrylic chambers (LE8811 IR, Panlab). Locomotion was detected and measured by 16 infrared light-beam sensors located on each side of the enclosure at a height of 3 cm. Sensors were spaced such that the light beams formed a matrix of 15×15 squares over the surface. Activity counts were recorded on a computer and Acti-Track software (Actitrack, Panlab) was used to convert raw data into “distance traveled” and “rearing counts” for analysis as relevant dependent variables.
(§4) Six different combinations of A2A/NR2B antagonists were tested without L-Dopa. For each combination, there were four different procedures: vehicle only; A2A antagonist followed by vehicle; vehicle followed by the NR2B antagonist and A2A antagonist followed by the NR2B antagonist. The drugs, doses and combinations are described in Table 3. After drug administration, rats were placed in actometers (open-field) for monitoring the general level of motor activity (distance traveled and rearing counts).
(§5) Before undertaking the study, each A2A and NR2B antagonist was tested individually. The doses were selected on the basis of preliminary dose-response curves performed separately for each drug and submaximal dose (i.e. response observed is not at its maximal level) of each drug was selected for the combination studies. The two drugs were administered separately via an intraperitoneal (ip) injection with a 2-minute interval between the two drugs. Five minutes after the second injection, animals were placed in the testing cage for behavioural recording. Due to formulation and exposure issues, Tozadenant and Radiprodil had to be administered orally and therefore recording was started 60 minutes post dosing at this corresponds to maximum plasma concentrations. Eight drug-naïve animals were used for each of the four procedures; 32 in total for each combination. All behavioral experiments were conducted between 8.00 AM and 2.00 PM at the latest. Preliminary pharmacokinetic assays investigated the plasma and brain disposition of selected drugs administered alone or in combination (ie. Tozadenant/Radiprodil, and Sch-58261/Co-101244; 3 animals per group). Tozadenant and Radiprodil were measured in samples obtained 60 minutes after single oral administration at 30 mg/kg. Sch-58261 and Co-101244 were measured in samples collected 90 min after single intraperitoneal administration at 3 mg/kg.
(§6) The effects of A2A and NR2B antagonists on the level of motor activity (i.e. distance traveled and rearing counts) were assessed with three-way mixed ANOVA, combining the A2A receptor antagonist (2 levels, vehicle and the A2A drug) and the NR2B antagonist (2 levels, vehicle and the NR2B drug) as between-group factors with the time as within-subjects factor (6 or 9 levels). […]

[2] = test system: unilateral 6-OHDA-lesioned rats; test: Distance traveled in actometers, monotherapy (without L-Dopa)
Description: as §1, §2, §3, §4, §5, §6

[3] = Plasma and brain exposure in satellite lesioned rats; details: rat, mean ± SD; for concentration at 60 min: po, 30 mg/kg, 60 min after dosing; for concentration at 90 min: ip, 3 mg/kg, 90 min after dosing
Description: Satellite lesioned rats (400–450 g) were anesthetized with isoflurane and sacrificed by exsanguination. Blood samples were collected in EDTA centrifuged 10 min at 3000 rpm at 4°C to obtain plasma and stored at −20°C prior the analysis. Brains were perfused by saline collected and immediately stored at −20°C prior the analysis. Brain samples were added to 4 volumes of water before being homogenized. A structural analog compound was added as internal standard to the samples and proteins were crashed using 8 volumes of acetonitrile. Compounds were analyzed on an API5000 mass spectrometer (ABSciex, Framingham, MA, USA.) equipped with a turbo ion spray source and interfaced with an Agilent 1290 Infinity LC system (Agilent Technologies, Waldbroon, Germany). The mass spectrometer was operated in the positive ionization mode with Multiple Reactions Monitoring used to quantify the various analytes (407 to 292 for Tozadenant; 398 to 109 for Radiprodil, 346 to 105 for Sch-58261 and 342 to 100 for Co-101244). A Waters HSS T3 column (2.1×30 mm, 1.8 µm) was used. The mobile phase consisted of 100% water with 0.1% formic acid (phase A) and 100% acetonitrile with 0.1% formic acid (phase B). The flow rate was 1 mL/min. A linear gradient was performed from 0 to 1 min (95 to 30% phase A), a jump to 90% B in 0.01 min, a hold period of 1.29 min at 90% phase B followed by equilibration at the initial condition was applied before the following injection.
as §5

[4] = Preladenant 0.1 mg/kg ip, Radiprodil 1 mg/kg ip
[5] = Tozadenant 30 mg/kg po, Radiprodil 3 mg/kg po
[6] = brain, administered alone, oral 30 mg/kg, expressed per g tissue, 3 animals, read-out: Brain concentration
[7] = brain, administered in combination Tozadenant + Radiprodil, both oral 30 mg/kg, expressed per g tissue, 3 animals, read-out: Brain concentration
[8] = plasma, administered alone, oral 30 mg/kg, 3 animals, read-out: Plasma concentration
[9] = plasma, administered in combination Tozadenant + Radiprodil, both oral 30 mg/kg, 3 animals, read-out: Plasma concentration
[10] = Sch-58261 1 mg/kg ip, Co-101244 1 mg/kg ip
[11] = Sch-58261 1 mg/kg ip, Merck 22 1 mg/kg ip

## O=C(Nc1ccc2[nH]c(=O)oc2c1)C(=O)N1CCC(Cc2ccc(F)cc2)CC1 [Radiprodil]
[1]; [4]
  Rearing counts, drugs alone vs vehicle, p (Newman-Keuls): Radiprodil, not significant
  Rearing counts, drugs main effect, p (three-way mixed ANOVA): p<0.001
  Rearing counts, drugs × time effect, p (three-way mixed ANOVA): p<0.01
[1]; [5]
  Rearing counts, drugs alone vs vehicle, p (Newman-Keuls): Not significant
  Rearing counts, drugs main effect, p (three-way mixed ANOVA): p<0.01
  Rearing counts, drugs × time effect, p (three-way mixed ANOVA): p<0.001
[1]; drug administered alone
  Rearing counts, drug alone in comparison to vehicle rats: not
[2]; [4]
  Distance traveled, drugs main effect, p (three-way mixed ANOVA): p<0.001
  Distance traveled, drugs × time effect, p (three-way mixed ANOVA): p<0.001
[2]; [5]
  Distance traveled, drugs alone vs vehicle, p (Newman-Keuls): not all drugs when administered alone improved distance traveled; also recorded: Not significant
  Distance traveled, drugs main effect, p (three-way mixed ANOVA): p<0.01
  Distance traveled, drugs × time effect, p (three-way mixed ANOVA): p<0.001
[3]; [6]
  concentration at 60 min: 2630 ± 560 ng/mL
[3]; [7]
  concentration at 60 min: 2590 ± 2480 ng/mL
[3]; [8]
  concentration at 60 min: 4960 ± 850 ng/mL
[3]; [9]
  concentration at 60 min: 5590 ± 2930 ng/mL

## Nc1nc2c(cnn2CCc2ccccc2)c2nc(-c3ccco3)nn12 [Sch-58261]
[1]; [10]
  Rearing counts, drugs alone vs vehicle, p (Newman-Keuls): Both p<0.05
  Rearing counts, drugs main effect, p (three-way mixed ANOVA): p<0.001
  Rearing counts, drugs × time effect, p (three-way mixed ANOVA): p<0.001
[1]; [11]
  Rearing counts, drugs alone vs vehicle, p (Newman-Keuls): Sch-58261 p<0.05
  Rearing counts, drugs main effect, p (three-way mixed ANOVA): p<0.001
  Rearing counts, drugs × time effect, p (three-way mixed ANOVA): p<0.001
[2]; [10]
  Distance traveled, drugs alone vs vehicle, p (Newman-Keuls): Both p<0.01
  Distance traveled, drugs main effect, p (three-way mixed ANOVA): p<0.001
  Distance traveled, drugs × time effect, p (three-way mixed ANOVA): p<0.001
[2]; [11]
  Distance traveled, drugs alone vs vehicle, p (Newman-Keuls): Both p<0.01
  Distance traveled, drugs main effect, p (three-way mixed ANOVA): p<0.001
  Distance traveled, drugs × time effect, p (three-way mixed ANOVA): Not significant
[2]; drug administered alone
  Distance traveled, drug alone in comparison to vehicle-treated controls: significant increase
[3]; brain, administered alone, ip 3 mg/kg, expressed per g tissue, 3 animals (Co-101244 n = 2), read-out: Brain concentration
  concentration at 90 min: 246 ± 34.7 ng/mL
[3]; brain, administered in combination Sch-58261+Co-101244, both ip 3 mg/kg, expressed per g tissue, 3 animals, read-out: Brain concentration
  concentration at 90 min: 264 ± 38.3 ng/mL
[3]; plasma, administered alone, ip 3 mg/kg, 3 animals (Co-101244 n = 2), read-out: Plasma concentration
  concentration at 90 min: 97.2 ± 10.1 ng/mL
[3]; plasma, administered in combination Sch-58261+Co-101244, both ip 3 mg/kg, 3 animals, read-out: Plasma concentration
  concentration at 90 min: 112 ± 4.16 ng/mL

## COc1ccc(N2CCOCC2)c2sc(NC(=O)N3CCC(C)(O)CC3)nc12 [Tozadenant]
[1]; [5]
  Rearing counts, drugs alone vs vehicle, p (Newman-Keuls): exception; also recorded: Not significant
  Rearing counts, drugs main effect, p (three-way mixed ANOVA): p<0.01
  Rearing counts, drugs × time effect, p (three-way mixed ANOVA): p<0.001
[2]; [5]
  Distance traveled, drugs alone vs vehicle, p (Newman-Keuls): not all drugs when administered alone improved distance traveled; also recorded: Not significant
  Distance traveled, drugs main effect, p (three-way mixed ANOVA): p<0.05
  Distance traveled, drugs × time effect, p (three-way mixed ANOVA): p<0.001
[3]; [6]
  concentration at 60 min: 180 ± 40 ng/mL
[3]; [7]
  concentration at 60 min: 110 ± 40 ng/mL
[3]; [8]
  concentration at 60 min: 6050 ± 950 ng/mL
[3]; [9]
  concentration at 60 min: 5040 ± 140 ng/mL
